The values that follow are results of earlier work, collected in PMC10715210, “Colistin plasma concentrations are not associated with better clinical outcomes in patients with pneumonia caused by extremely drug-resistant Pseudomonas aeruginosa” (Microbiology Spectrum, 2023).

Positions of bridges follow the written chain, without caps; N, C: chain ends. Non-standard residues stand in square brackets, D forms with d. Residues, ends and D or L forms follow the SMILES beside them. *: point of attachment. X1 = CC[C@H](C)CCCCC(=O)*; Dab = NCC[C@H](N)C(=O)O

For this data set the following is noted: samples drawn at 45 min after the start of infusion; loading dose 9 million IU CMS then 4.5 million IU every 12 hours; cited from earlier work. The procedure:
([10]). […] Concentrations of CMS and formed colistin in plasma were measured as reported previously ([35], [36]). The limits of quantification for colistin and CMS in plasma were 0.20 and 0.50 mg/L, respectively. Based on the almost flat plasma concentration-time profiles of formed colistin at st ...

On to `CC[C@H](C)CCCCC(=O)N[C@@H](CCN)C(=O)N[C@H](C(=O)N[C@@H](CCN)C(=O)N[C@H]1CCNC(=O)[C@H]([C@@H](C)O)NC(=O)[C@H](CCN)NC(=O)[C@H](CCN)NC(=O)[C@H](CC(C)C)NC(=O)[C@@H](CC(C)C)NC(=O)[C@H](CCN)NC1=O)[C@@H](C)O` [colistin] (X1-[Dab]T[Dab][Dab][Dab][dL]L[Dab][Dab]T; lactam 4-C), for which the Colistin plasma concentration is recorded as 0.44 (0.14–1.59) mg/L.
